Key:
AsPC-1 (K-Ras G12D) [1] = test: CellTiter-Glo cell viability assay, AsPC-1; assay type: cell-based; conditions: Homo sapiens, ASPC1, 120 h, AsPC-1, K-Ras G12D, 5-day treatment; read-out: AsPC-1 Cell Viability IC50
Outline: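 Percent-of-DMSO luminescence values (CellTiter-Glo, day 5, plates equilibrated ~30 minutes at ambient temperature) were curve-fitted using a 4-parameter logistic equation; compounds had been added straight into wells containing the cells.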

AsPC-1 (K-Ras G12D) [2] = test: Potency assay: pERK in AsPC-1 cells; assay type: cell-based; conditions: Homo sapiens, ASPC1; AsPC-1 cells, K-Ras G12D; read-out: pERK EC50 (AsPC-1 KRAS G12D)

Row | SMILES | IC50 (AsPC-1 (K-Ras G12D) [1]) [µM] | EC50 (AsPC-1 (K-Ras G12D) [2]) [µM]
1 | CCn1c(-c2cccnc2[C@H](C)OC)c2c3cc(ccc31)-c1cc(O)cc(c1)C[C@H](NC(=O)[C@H](C(C)C)N(C)C(=O)[C@@]1(F)CCN(C(=O)[C@@H]3CN3)C1)C(=O)N1CCC[C@H](N1)C(=O)OCC(C)(C)C2 [Compound 185] | 1 to 10 | < 5
2 | CCn1c(-c2cccnc2[C@H](C)OC)c2c3cc(ccc31)-c1cc(O)cc(c1)C[C@H](NC(=O)[C@H](C(C)C)N(C)C(=O)c1ccc(NC(=O)[C@@H]3CN3)cn1)C(=O)N1CCC[C@H](N1)C(=O)OCC(C)(C)C2 [Compound 187] | 1 to 10 | < 5
3 | CCn1c(-c2cccnc2[C@H](C)OC)c2c3cc(ccc31)-c1cc(O)cc(c1)C[C@H](NC(=O)[C@H](C(C)C)N(C)C(=O)N1CCCN(C(=O)[C@H]3CN3)CC1)C(=O)N1CCC[C@H](N1)C(=O)OCC(C)(C)C2 [Compound 190] | 1 to 10 | < 5
4 | CCn1c(-c2cccnc2[C@H](C)OC)c2c3cc(ccc31)-c1cc(O)cc(c1)C[C@H](NC(=O)[C@H](C(C)C)N(C)C(=O)[C@H]1CCN(C(=O)[C@@H]3N[C@@H]3C3CC3)C1)C(=O)N1CCC[C@H](N1)C(=O)OCC(C)(C)C2 [Compound 198] | 0.1 to 1 | < 5
5 | CCn1c(-c2cccnc2[C@H](C)OC)c2c3cc(ccc31)-c1cc(O)cc(c1)C[C@H](NC(=O)[C@H](C(C)C)N(C)C(=O)N(C)CCN(C)C(=O)[C@H]1CN1)C(=O)N1CCC[C@H](N1)C(=O)OCC(C)(C)C2 [Compound 204] | 1 to 10 | < 5
6 | CCn1c(-c2cccnc2[C@H](C)OC)c2c3cc(ccc31)-c1cc(O)cc(c1)C[C@H](NC(=O)[C@H](C(C)C)N(C)C(=O)N1CCN(C(=O)[C@@H]3CN3)CC1=O)C(=O)N1CCC[C@H](N1)C(=O)OCC(C)(C)C2 [Compound 205] | > 10 | < 5
7 | CCn1c(-c2cccnc2[C@H](C)OC)c2c3cc(ccc31)-c1csc(n1)C[C@H](NC(=O)[C@H](C(C)C)N(C)C(=O)N1CC(N(C)C(=O)[C@@H]3CN3)C1)C(=O)N1CCC[C@H](N1)C(=O)OCC(C)(C)C2 [Compound 219] | 1 to 10 | < 5
8 | CCn1c(-c2cccnc2[C@H](C)OC)c2c3cc(ccc31)-c1csc(n1)C[C@H](NC(=O)[C@H](C(C)C)N(C)C(=O)N(C)C1CN(C(=O)[C@H]3CN3)C1)C(=O)N1CCC[C@H](N1)C(=O)OCC(C)(C)C2 [Compound 220] | 1 to 10 | < 5
9 | CCn1c(-c2cccnc2[C@H](C)OC)c2c3cc(ccc31)-c1csc(n1)C[C@H](NC(=O)[C@H](C(C)C)N(C)C(=O)N(C)C1CN(C(=O)[C@@H]3CN3)C1)C(=O)N1CCC[C@H](N1)C(=O)OCC(C)(C)C2 [Compound 221] | 1 to 10 | < 5
10 | CCn1c(-c2cccnc2[C@H](C)OC)c2c3cc(ccc31)-c1csc(n1)C[C@H](NC(=O)[C@H](C(C)C)N(C)C(=O)N1CC[C@H](N(C)C(=O)[C@@H]3CN3)C1)C(=O)N1CCC[C@H](N1)C(=O)OCC(C)(C)C2 [Compound 229] | 1 to 10 | < 5
11 | CCn1c(-c2cccnc2[C@H](C)OC)c2c3cc(ccc31)-c1cc(O)cc(c1)C[C@H](NC(=O)[C@H](C(C)C)N(C)C(=O)[C@@H]1CCCN(C(=O)[C@H]3CN3)C1)C(=O)N1CCC[C@H](N1)C(=O)OCC(C)(C)C2 [Compound 237] | 1 to 10 | < 5
12 | CCn1c(-c2cccnc2[C@H](C)OC)c2c3cc(ccc31)-c1cc(O)cc(c1)C[C@H](NC(=O)[C@H](C(C)C)N(C)C(=O)[C@@H]1CCCN(C(=O)[C@@H]3CN3)C1)C(=O)N1CCC[C@H](N1)C(=O)OCC(C)(C)C2 [Compound 238] | 1 to 10 | < 5
13 | CCn1c(-c2cccnc2[C@H](C)OC)c2c3cc(ccc31)-c1cc(O)cc(c1)C[C@H](NC(=O)[C@@H](C(C)C)N(C)C(=O)[C@@]1(C)CCCN1C(=O)[C@@H]1CN1)C(=O)N1CCC[C@H](N1)C(=O)OCC(C)(C)C2 [Compound 242] | 1 to 10 | < 5
14 | CCn1c(-c2cccnc2[C@H](C)OC)c2c3cc(ccc31)-c1cc(O)cc(c1)C[C@H](NC(=O)[C@H](C(C)C)N(C)C(=O)[C@]13C[C@H]1CCN3C(=O)[C@H]1CN1)C(=O)N1CCC[C@H](N1)C(=O)OCC(C)(C)C2 [Compound 244] | 1 to 10 | < 5
15 | CCn1c(-c2cccnc2[C@H](C)OC)c2c3cc(ccc31)-c1cc(O)cc(c1)C[C@H](NC(=O)[C@H](C(C)C)N(C)C(=O)[C@H]1C[C@H]3CC[C@@H](C1)N3C(=O)[C@H]1CN1)C(=O)N1CCC[C@H](N1)C(=O)OCC(C)(C)C2 [Compound 245] | 1 to 10 | < 5
16 | CCn1c(-c2cccnc2[C@H](C)OC)c2c3cc(ccc31)-c1cc(O)cc(c1)C[C@H](NC(=O)[C@H](C(C)C)N(C)C(=O)[C@H]1C[C@H]3CC[C@@H](C1)N3C(=O)[C@@H]1CN1)C(=O)N1CCC[C@H](N1)C(=O)OCC(C)(C)C2 [Compound 246] | 1 to 10 | < 5

— patent publication US11739074B2, “Ras inhibitors” (Revolution Medicines, Inc., priority 2019, dated 2023)
